Tested on: human embryonic kidney 293 (HEK293) cells
Experiment: Toxicity of Nucleoside Triphosphates (NTPs), CYTO TOX-GLO assay
Type: cell-based
Procedure: The cytotoxicity of natural and modified nucleoside triphosphates (NTPs) alone or in combination with other bases, was analyzed in human embryonic kidney 293 (HEK293) cells in the absence of transfection reagent. […] 10 ul of the NTPs outlined in Table 12 were combined with 10 ul of lipid dilution and incubated for 30 minutes to form a complex before 80 ul of the HEK293 cell suspension was added to the NTP complex. Natural and modified NTPs were transfected at a concentration of 2.1 nM, 21 nM, 210 nM, 2.1 um, 21 uM, 210 um or 2.1 mM. NTPs in combination were transfected at a total concentration of NTPs of 8.4 nM, 84 nM, 840 nM, 8.4 uM, 84 uM, 840 uM and 8.4 mM.

In the case of `Cn1cc([C@@H]2O[C@H](CO)[C@@H](O)[C@H]2O)c(=O)[nH]c1=O` [N1-methyl pseudouridine], the “percent of viable cells” value (HEK293, individual NTP 2.1 nM, 4 hr) is reported as 91.89%, the “percent of viable cells” value (HEK293, individual NTP 2.1 nM, 24 hr) is reported as 87.79% and the “percent of viable cells” value (HEK293, individual NTP 2.1 nM, 48 hr) is reported as 87.81%. For the same compound, the “percent of viable cells” value (HEK293, individual NTP 2.1 nM, 72 hr) was 92.98%, the “percent of viable cells” value (HEK293, individual NTP 21 nM, 4 hr) was 91.44% and the “percent of viable cells” value (HEK293, individual NTP 21 nM, 24 hr) was 86.85%. For the same compound, the “percent of viable cells” value (HEK293, individual NTP 21 nM, 48 hr) was 86.72%, the “percent of viable cells” value (HEK293, individual NTP 21 nM, 72 hr) was 92.84% and the “percent of viable cells” value (HEK293, individual NTP 210 nM, 4 hr) was 92.15%. The “percent of viable cells” value (HEK293, individual NTP 210 nM, 24 hr) was 85.89%, the “percent of viable cells” value (HEK293, individual NTP 210 nM, 48 hr) was 87.38% and the “percent of viable cells” value (HEK293, individual NTP 210 nM, 72 hr) was 92.40%. The “percent of viable cells” value (HEK293, individual NTP 2.1 uM, 4 hr) was 90.41%, the “percent of viable cells” value (HEK293, individual NTP 2.1 uM, 24 hr) was 85.72% and the “percent of viable cells” value (HEK293, individual NTP 2.1 uM, 48 hr) was 85.85%. For the same compound, the “percent of viable cells” value (HEK293, individual NTP 2.1 uM, 72 hr) was 92.25%, the “percent of viable cells” value (HEK293, individual NTP 21 uM, 4 hr) was 91.48% and the “percent of viable cells” value (HEK293, individual NTP 21 uM, 24 hr) was 85.17%. The “percent of viable cells” value (HEK293, individual NTP 21 uM, 48 hr) was 87.52%, the “percent of viable cells” value (HEK293, individual NTP 21 uM, 72 hr) was 93.83% and the “percent of viable cells” value (HEK293, individual NTP 210 uM, 4 hr) was 91.43%. The “percent of viable cells” value (HEK293, individual NTP 210 uM, 24 hr) was 86.48%, the “percent of viable cells” value (HEK293, individual NTP 210 uM, 48 hr) was 86.02% and the “percent of viable cells” value (HEK293, individual NTP 210 uM, 72 hr) was 93.03%. For the same compound, the “percent of viable cells” value (HEK293, individual NTP 2.1 mM, 4 hr) was 92.45%, the “percent of viable cells” value (HEK293, individual NTP 2.1 mM, 24 hr) was 88.92% and the “percent of viable cells” value (HEK293, individual NTP 2.1 mM, 48 hr) was 89.84%. The “percent of viable cells” value (HEK293, individual NTP 2.1 mM, 72 hr) was 96.80%.
For `Nc1cc[nH]c(=O)n1` [Cytosine], the “percent of viable cells” value (human, 4 h, 2.1 nM) was 93.34%, the “percent of viable cells” value (human, 4 h, 21 nM) was 93.11% and the “percent of viable cells” value (human, 4 h, 210 nM) was 88.95%. The “percent of viable cells” value (human, 4 h, 2.1 uM) was 90.49%, the “percent of viable cells” value (human, 4 h, 21 uM) was 91.41% and the “percent of viable cells” value (human, 4 h, 210 uM) was 89.88%. For the same compound, the “percent of viable cells” value (human, 4 h, 2.1 mM) was 90.51%, the “percent of viable cells” value (human, 24 h, 2.1 nM) was 85.78% and the “percent of viable cells” value (human, 24 h, 21 nM) was 86.16%. For the same compound, the “percent of viable cells” value (human, 24 h, 210 nM) was 86.12%, the “percent of viable cells” value (human, 24 h, 2.1 uM) was 86.70% and the “percent of viable cells” value (human, 24 h, 21 uM) was 85.72%. For the same compound, the “percent of viable cells” value (human, 24 h, 210 uM) was 86.33%, the “percent of viable cells” value (human, 24 h, 2.1 mM) was 86.92% and the “percent of viable cells” value (human, 48 h, 2.1 nM) was 88.99%. The “percent of viable cells” value (human, 48 h, 21 nM) was 88.95%, the “percent of viable cells” value (human, 48 h, 210 nM) was 85.36% and the “percent of viable cells” value (human, 48 h, 2.1 uM) was 87.73%. The “percent of viable cells” value (human, 48 h, 21 uM) was 87.28%, the “percent of viable cells” value (human, 48 h, 210 uM) was 87.81% and the “percent of viable cells” value (human, 48 h, 2.1 mM) was 94.23%. For the same compound, the “percent of viable cells” value (human, 72 h, 2.1 nM) was 94.22%, the “percent of viable cells” value (human, 72 h, 21 nM) was 91.80% and the “percent of viable cells” value (human, 72 h, 210 nM) was 88.22%. The “percent of viable cells” value (human, 72 h, 2.1 uM) was 88.93%, the “percent of viable cells” value (human, 72 h, 21 uM) was 92.22% and the “percent of viable cells” value (human, 72 h, 210 uM) was 92.34%. The “percent of viable cells” value (human, 72 h, 2.1 mM) was 97.15%.
For `Cc1c[nH]c(=O)nc1N` [5-methyl cytosine], the “percent of viable cells” value (human, 4 h, 2.1 nM) was 92.23%, the “percent of viable cells” value (human, 4 h, 21 nM) was 91.40% and the “percent of viable cells” value (human, 4 h, 210 nM) was 92.31%. The “percent of viable cells” value (human, 4 h, 2.1 uM) was 91.31%, the “percent of viable cells” value (human, 4 h, 21 uM) was 91.16% and the “percent of viable cells” value (human, 4 h, 210 uM) was 91.54%. For the same compound, the “percent of viable cells” value (human, 4 h, 2.1 mM) was 92.01%, the “percent of viable cells” value (human, 24 h, 2.1 nM) was 86.35% and the “percent of viable cells” value (human, 24 h, 21 nM) was 86.37%. For the same compound, the “percent of viable cells” value (human, 24 h, 210 nM) was 84.71%, the “percent of viable cells” value (human, 24 h, 2.1 uM) was 85.14% and the “percent of viable cells” value (human, 24 h, 21 uM) was 84.72%. The “percent of viable cells” value (human, 24 h, 210 uM) was 85.76%, the “percent of viable cells” value (human, 24 h, 2.1 mM) was 87.97% and the “percent of viable cells” value (human, 48 h, 2.1 nM) was 88.18%. For the same compound, the “percent of viable cells” value (human, 48 h, 21 nM) was 87.10%, the “percent of viable cells” value (human, 48 h, 210 nM) was 86.44% and the “percent of viable cells” value (human, 48 h, 2.1 uM) was 86.18%. The “percent of viable cells” value (human, 48 h, 21 uM) was 85.74%, the “percent of viable cells” value (human, 48 h, 210 uM) was 85.94% and the “percent of viable cells” value (human, 48 h, 2.1 mM) was 87.29%. The “percent of viable cells” value (human, 72 h, 2.1 nM) was 91.93%, the “percent of viable cells” value (human, 72 h, 21 nM) was 92.10% and the “percent of viable cells” value (human, 72 h, 210 nM) was 89.97%. For the same compound, the “percent of viable cells” value (human, 72 h, 2.1 uM) was 90.92%, the “percent of viable cells” value (human, 72 h, 21 uM) was 92.26% and the “percent of viable cells” value (human, 72 h, 210 uM) was 88.10%. For the same compound, the “percent of viable cells” value (human, 72 h, 2.1 mM) was 96.08%.
In the case of `Nc1ncnc2nc[nH]c12` [Adenine], the “percent of viable cells” value (human, 4 h, 2.1 nM) is reported as 93.48%, the “percent of viable cells” value (human, 4 h, 21 nM) is reported as 93.21% and the “percent of viable cells” value (human, 4 h, 210 nM) is reported as 90.36%. The “percent of viable cells” value (human, 4 h, 2.1 uM) was 90.23%, the “percent of viable cells” value (human, 4 h, 21 uM) was 91.20% and the “percent of viable cells” value (human, 4 h, 210 uM) was 85.97%. The “percent of viable cells” value (human, 4 h, 2.1 mM) was 90.03%, the “percent of viable cells” value (human, 24 h, 2.1 nM) was 86.44% and the “percent of viable cells” value (human, 24 h, 21 nM) was 87.19%. The “percent of viable cells” value (human, 24 h, 210 nM) was 86.94%, the “percent of viable cells” value (human, 24 h, 2.1 uM) was 86.81% and the “percent of viable cells” value (human, 24 h, 21 uM) was 86.86%. The “percent of viable cells” value (human, 24 h, 210 uM) was 87.31%, the “percent of viable cells” value (human, 24 h, 2.1 mM) was 88.42% and the “percent of viable cells” value (human, 48 h, 2.1 nM) was 92.12%. The “percent of viable cells” value (human, 48 h, 21 nM) was 91.13%, the “percent of viable cells” value (human, 48 h, 210 nM) was 89.17% and the “percent of viable cells” value (human, 48 h, 2.1 uM) was 89.80%. For the same compound, the “percent of viable cells” value (human, 48 h, 21 uM) was 89.94%, the “percent of viable cells” value (human, 48 h, 210 uM) was 90.55% and the “percent of viable cells” value (human, 48 h, 2.1 mM) was 93.71%. For the same compound, the “percent of viable cells” value (human, 72 h, 2.1 nM) was 95.74%, the “percent of viable cells” value (human, 72 h, 21 nM) was 93.88% and the “percent of viable cells” value (human, 72 h, 210 nM) was 92.22%. The “percent of viable cells” value (human, 72 h, 2.1 uM) was 94.58%, the “percent of viable cells” value (human, 72 h, 21 uM) was 93.83% and the “percent of viable cells” value (human, 72 h, 210 uM) was 94.81%. For the same compound, the “percent of viable cells” value (human, 72 h, 2.1 mM) was 97.49%.
For `O=c1cc[nH]c(=O)[nH]1` [Uracil], the “percent of viable cells” value (human, 4 h, 2.1 nM) was 93.15%, the “percent of viable cells” value (human, 4 h, 21 nM) was 92.90% and the “percent of viable cells” value (human, 4 h, 210 nM) was 91.05%. The “percent of viable cells” value (human, 4 h, 2.1 uM) was 90.90%, the “percent of viable cells” value (human, 4 h, 21 uM) was 91.95% and the “percent of viable cells” value (human, 4 h, 210 uM) was 89.60%. The “percent of viable cells” value (human, 4 h, 2.1 mM) was 90.97%, the “percent of viable cells” value (human, 24 h, 2.1 nM) was 87.63% and the “percent of viable cells” value (human, 24 h, 21 nM) was 87.23%. The “percent of viable cells” value (human, 24 h, 210 nM) was 86.52%, the “percent of viable cells” value (human, 24 h, 2.1 uM) was 86.75% and the “percent of viable cells” value (human, 24 h, 21 uM) was 85.89%. For the same compound, the “percent of viable cells” value (human, 24 h, 210 uM) was 86.48%, the “percent of viable cells” value (human, 24 h, 2.1 mM) was 87.68% and the “percent of viable cells” value (human, 48 h, 2.1 nM) was 91.28%. The “percent of viable cells” value (human, 48 h, 21 nM) was 88.89%, the “percent of viable cells” value (human, 48 h, 210 nM) was 88.33% and the “percent of viable cells” value (human, 48 h, 2.1 uM) was 89.44%. For the same compound, the “percent of viable cells” value (human, 48 h, 21 uM) was 89.11%, the “percent of viable cells” value (human, 48 h, 210 uM) was 88.98% and the “percent of viable cells” value (human, 48 h, 2.1 mM) was 94.39%. For the same compound, the “percent of viable cells” value (human, 72 h, 2.1 nM) was 95.51%, the “percent of viable cells” value (human, 72 h, 21 nM) was 94.53% and the “percent of viable cells” value (human, 72 h, 210 nM) was 94.50%. For the same compound, the “percent of viable cells” value (human, 72 h, 2.1 uM) was 94.60%, the “percent of viable cells” value (human, 72 h, 21 uM) was 93.63% and the “percent of viable cells” value (human, 72 h, 210 uM) was 93.45%. For the same compound, the “percent of viable cells” value (human, 72 h, 2.1 mM) was 96.82%.

— patent US20130123481A1, “MODIFIED NUCLEOSIDES, NUCLEOTIDES, AND NUCLEIC ACIDS, AND USES THEREOF” (MODERNA THERAPEUTICS, priority 2011, published 2013)
